Data set [1] in a line: Determination of acute toxicity (LD50), intravenous, male mice. As to conditions: mouse, in vivo, 5 mice per batch, 6 days. As to the method: The acute toxicity of the compounds according to the invention was determined on male mice whose weight varied between 24 and 26 g. The compounds are administered intravenously in solution form and at the rate of 0.5 ml per 20 g of body weight, by varying the concentration of the injected solution.
Each compound is tested on a batch of 5 mice which are examined for 6 days following the injection.

In data set [2] the test system is apomorphine. The data set is described as follows: Determination of central antiemetic activity (apomorphine vomiting). The class given is in vivo, Beagle dogs. The conditions noted are these: 1 mg/kg intramuscular; for Antiemetic effect /22 (average number of vomitings for two dogs): 30 min before 0.1 mg/kg apomorphine s.c., counted 30 min, controls 22. The method, then:
These tests were carried out on adult Beagle dogs with a weight of 7 to 12 kg and which had gone without food for 18 hours. The dogs receive a dose of 1 mg/kg (0.1 ml/kg) of the compound according to the invention by intramuscular injection. 30 minutes later, 0.1 mg/kg (0.1 ml/kg) of apomorphine is administered to them subcutaneously as a central compound. The vomitings during the 30 minutes following the injection of apomorphine are counted. For two dogs serving as controls and receiving only the apomorphine 22 vomitings were counted. […] The results were confirmed by alternate tests by resuming these tests and interchanging the control dogs and the dogs on which the compounds according to the invention were previously tried.
The results relating to the toxicity and the central antiemetic activity of the compounds given hereinbefore are stated clearly in the following Table. The antiemetic activity is expressed in the form of the average number of vomitings for two dogs and is to be compared with the number 22 obtained with the control animals.

For data set [3], the system named is pentetrazole. The experiment in a line: Anticonvulsive activity (pentetrazole convulsions). The class given is in vivo, mice. As to conditions: 50 mg/kg i.p., pentetrazole 100 mg/kg i.p. The method, then:
The compounds according to the invention were tested for their anticonvulsive activity by following the procedure described hereinafter.
Each compound is administered intraperitoneally to a batch of mice at the rate of 50 mg of compound per kilogram of body weight. 30 minutes later the mice receive, still intraperitoneally, 100 mg/kg of pentetrazole.
The time of appearance of the first convulsions (clonic convulsions), that of the tonic convulsions (hyperextension) and the death of the mice is then measured. The injections of pentetrazole are carried out comparatively on control animals.

Data set [4] is described as follows: Solubility remark in the Toxicity column. The class given is physicochemical. As to conditions: in words.
The test system of data set [5] is cornea of rabbits. The data set is described as follows: Local anesthetic activity by Regnier's method. The class given is in vivo. As to conditions: in words. The method, then: This activity was measured on the cornea of rabbits by Regnier's method, described on particular in "Principes de la pharmacodynamie," pp. 204-206, Masson (1959).

Data on 15 compounds can be found in patent US4132786A, “N-Substituted 2-methoxybenzenesulphonamides and medicaments containing them” (priority 1975, dated 1979).

Bounds are passed on as bounds.

The term LD50 denotes the dose expected to kill half of the subjects tested. A higher LD50 goes with a less toxic substance.

Regarding `CCN(CC)CCNS(=O)(=O)c1ccc([N+](=O)[O-])cc1OC`, the LD50 at 144 h in data set [1] is > 100 mg/kg. Moreover, the “Antiemetic effect /22 (average number of vomitings for two dogs)” value in data set [2] was 15 vomitings.

With `CCN(CC)CCCNS(=O)(=O)c1cc(Cl)c(N)cc1OC` [Ref. i, 2-methoxy-4-amino-5-chloro-N-(3-diethylaminopropyl)benzenesulphonamide], the LD50 at 144 h in data set [1] came out at 117 mg/kg. For the same compound, the “Antiemetic effect /22 (average number of vomitings for two dogs)” value in data set [2] came out at 3 vomitings. The antiemetic activity result in data set [2] (in words, apomorphine 0.1 mg/kg s.c.) is on record as “excellent”. Also, in data set [3] (of the five mice), the “mice dead at the end of the test (of five in the batch)” value is “three”. The lethalness entry in data set [3] (in words) is “a decrease in the lethalness”.

Consider `CCN(CC)CCCNS(=O)(=O)c1cc(Cl)ccc1OC` [Ref. m], for which, in data set [2], the “Antiemetic effect /22 (average number of vomitings for two dogs)” value is recorded as 12 vomitings. The “solubility (printed in Toxicity column)” value in data set [4] is reported as “insoluble”.

In data set [1], `CCN(CC)CCCNS(=O)(=O)c1ccc(N)cc1OC` [Ref. c, 2-methoxy-4-amino-N-(3-diethylaminopropyl)benzenesulphonamide] yielded an LD50 at 144 h of 50 to 100 mg/kg. For the same compound, the “Antiemetic effect /22 (average number of vomitings for two dogs)” value in data set [2] worked out at 17 vomitings. Besides, the local anesthetic action entry in data set [5] is recorded as “a certain local anesthetic action”.

As for `COc1cc([N+](=O)[O-])c(Cl)cc1S(=O)(=O)NCCN1CCCCC1` [Ref. d], the LD50 at 144 h in data set [1] was > 100 mg/kg. In data set [2], the “Antiemetic effect /22 (average number of vomitings for two dogs)” value came out at 16 vomitings.

Turning to `COc1cc(N)c(Cl)cc1S(=O)(=O)NCCCN1CCOCC1` [Ref. j], the LD50 at 144 h in data set [1] is > 100 mg/kg. The “Antiemetic effect /22 (average number of vomitings for two dogs)” value in data set [2] came to 22 vomitings.

As to `CCN(CC)CCNS(=O)(=O)c1ccc(N)cc1OC` [Ref. b, 2-methoxy-4-amino-N-(2-diethylaminoethyl)benzenesulphonamide], the LD50 at 144 h in data set [1] is > 100 mg/kg. The “Antiemetic effect /22 (average number of vomitings for two dogs)” value in data set [2] was found to be 22 vomitings. Besides, in data set [5], the local anesthetic action entry is listed as “a certain local anesthetic action”.

`COc1cc(N)c(Cl)cc1S(=O)(=O)NCCN1CCCCC1` [Ref. g] came in with an LD50 at 144 h in data set [1] of 50 to 100 mg/kg. For the same compound, the “Antiemetic effect /22 (average number of vomitings for two dogs)” value in data set [2] is reported as 13 vomitings.

As for `CCN(CC)CCCNS(=O)(=O)c1cc(Cl)c([N+](=O)[O-])cc1OC` [Ref. e], in data set [1], the LD50 at 144 h is > 100 mg/kg.

As for `COc1cc(N)c(Cl)cc1S(=O)(=O)NCCCN1CCCCC1` [Ref. o], the LD50 at 144 h in data set [1] lay within 80 to 100 mg/kg.

On to `COc1ccc(Cl)cc1S(=O)(=O)NCCN(C)C` [Ref. k], for which the LD50 at 144 h in data set [1] is > 100 mg/kg. Moreover, in data set [2], the “Antiemetic effect /22 (average number of vomitings for two dogs)” value came out at 22 vomitings.

`CCN(CC)CCNS(=O)(=O)c1cc(Cl)c(N)cc1OC` [Ref. f] came in with a median lethal dose (LD50) at 144 h in data set [1] of 50 to 100 mg/kg. Moreover, the “Antiemetic effect /22 (average number of vomitings for two dogs)” value in data set [2] was determined as 13 vomitings.

As to `COc1ccc(S(N)(=O)=O)cc1S(=O)(=O)NCCN(C)C` [Ref. n], the LD50 at 144 h in data set [1] was > 100 mg/kg.

With `COc1cc(N)c(Cl)cc1S(=O)(=O)NCCCN(C)C` [Ref. h], the LD50 at 144 h in data set [1] was > 100 mg/kg. The “Antiemetic effect /22 (average number of vomitings for two dogs)” value in data set [2] came out at 9 vomitings.

For `CCN(CC)CCNS(=O)(=O)c1cc(Cl)ccc1OC` [Ref. l], in data set [1], the LD50 at 144 h is > 100 mg/kg. Further, the “Antiemetic effect /22 (average number of vomitings for two dogs)” value in data set [2] is listed as 8 vomitings.
